Data reported in patent US8642622B2, “Piperidinyl compound as a modulator of chemokine receptor activity” (Bristol-Myers Squibb Company, priority 2010, dated 2014).

Assays:
[1] = Human liver microsomal metabolism, Assay Conditions A; type: in vitro ADME; conditions: 0.5 μM compound, 10 minutes, 37° C.
Method: Test compound is received as a 3.5 mM stock solution in 100 percent DMSO. Compound is diluted to create a 50 μM acetonitrile (ACN) solution containing 1.4% DMSO, which is then used as a 100× stock for incubation with microsomes. Each compound is tested in duplicate separately in each of three species in the Metabolic Stability-Human, Rat, and Mouse assay suite or as individual species in the Metabolic Stability-Dog or Metabolic Stability-Monkey suites. Compound, NADPH and liver microsome solutions are combined for incubation in three steps:
152 μL of liver microsome suspension, protein concentration of 1.1 mg/mL in 100 mM NaPi, pH 7.4, 6.6 mM MgCl2 buffer, is pre-warmed at 37° C.
• 1) 1.7 μL of 50 μM compound (98.6% ACN, 1.4% DMSO) is added to the same tube and pre-incubated at 37° C. for 5 minutes. • 2) The reaction is initiated by the addition of 17 μL of pre-warmed 10 mM NADPH solution in 100 mM NaPi, pH 7.4. • 3) Reaction components are mixed well, and 75 μL are immediately transferred into 150 μl quench/stop solution (zero-time point, To). Reactions are incubated at 37° C. for 10 minutes and then an additional 75 μL aliquot is transferred into 150 μL quench solution. Acetonitrile containing 100 μM DMN (a UV standard for injection quality control), is used as the quench solution to terminate metabolic reactions. • 4) Quenched mixtures are centrifuged at 1500 rpm (˜500×g) in an Allegra X-12 centrifuge, SX4750 rotor (Beckman Coulter Inc., Fullerton, Calif.) for fifteen minutes to pellet denatured microsomes. A volume of 90 μL of supernatant extract, containing the mixture of parent compound and its metabolites, is then transferred to a separate 96-well plate for UV-LC/MS-MS analysis to determine the percent of parent compound that is remaining in the mixture.

[2] = Human liver microsomal metabolism, Assay Conditions B; type: in vitro ADME; conditions: 3 μM compound, 10 minutes, 37° C.
Method: Test compound is received as 20 mM in DMSO. Compound is diluted to create a 300 μM acetonitrile (ACN) solution containing 1.5% DMSO, which is then used as a 100× stock for incubation with microsomes. Each compound is tested in duplicate separately in each of three species in the Metabolic Stability-Human, Rat, Mouse assay suite or individual species in the Metabolic Stability-Dog or Metabolic Stability-Monkey suites. Compound, NADPH and liver microsome solutions are combined for incubation in three steps: • 1. 450 μL of liver microsome suspension, protein concentration of 1 mg/mL in 100 mM NaPi, pH 7.4, 6.6 mM MgCl2 buffer, are pre-warmed at 37° C. • 2. […] of 300 μM compound (98.5% CAN, 1.5% DMSO) is added to the same tube. • 3. The reaction is initiated by the addition of 50 μL of pre-warmed 5 mM NADPH solution in 100 mM NaPi, pH 7.4.
Reaction components are mixed well and 150 μL removed to quench/stop solution immediately for the zero-minute time point. Reactions are incubated at 37° C. for 10 minutes and then an additional 150 μL removed from incubation. Aliquots removed are combined with 300 μL ACN which contains 100 μM DMN as a UV standard for detection.
Quenched mixtures are centrifuged at 1500 rpm (˜500×g) in an Allegra X-12 centrifuge, SX4750 rotor (Beckman Coulter Inc., Fullerton, Calif.) for fifteen minutes to pellet denatured microsomes. A volume of 110 μl of supernatant extract, containing the mixture of parent compound and its metabolites, is then transferred to a separate 96-well plate for UV-LC/MS-MS analysis to determine the percent of parent compound that is remaining in the mixture.

[3] = Single-dose pharmacokinetics in rats; type: in vivo; conditions: male, Sprague-Dawley, rat, plasma; for clearance: intravenous; for bioavailability: po, oral solution, read-out: Rat oral bioavailability when dosed as solution
Method: Serial blood samples were collected for all studies from the jugular vein at various time points post dose (0.17 (or 0.25 for oral), 0.5, 0.75, 1, 2, 4, 6, 8 and 24 h, for example). Plasma samples were analyzed by LC-MS/MS.
Additional studies evaluating suspensions of crystalline drug substance in aqueous medium were performed as described above.

[4] = target: T1, Human PXR (Homo sapiens, UniProt O75469); test: PXR transactivation assay (HepG2, CYP3A-Luc reporter); type: cell-based; conditions: reported as EC60
T1 construct: expressed in transfected cells; host or cells: HepG2
T1 sequence (O75469 1-434): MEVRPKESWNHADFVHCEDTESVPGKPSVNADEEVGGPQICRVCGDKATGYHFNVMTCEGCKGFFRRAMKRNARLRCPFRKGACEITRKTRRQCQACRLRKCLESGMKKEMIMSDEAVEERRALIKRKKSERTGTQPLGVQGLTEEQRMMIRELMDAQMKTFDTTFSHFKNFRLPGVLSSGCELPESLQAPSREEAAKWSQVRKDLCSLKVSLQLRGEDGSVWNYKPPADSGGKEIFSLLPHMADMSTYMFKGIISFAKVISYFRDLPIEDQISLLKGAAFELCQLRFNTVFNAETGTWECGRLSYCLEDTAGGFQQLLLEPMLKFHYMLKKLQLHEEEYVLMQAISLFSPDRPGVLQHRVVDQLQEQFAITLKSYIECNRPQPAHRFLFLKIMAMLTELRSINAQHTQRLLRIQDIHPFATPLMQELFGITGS
Text: The cell culture medium used is DMEM. […] Charcoal/dextran treated fetal bovine serum (FBS) was purchased from Hyclone (Logan, Utah). HepG2 cells were obtained from ATCC (Manassas, Va.). Human PXR-pcDNA3 and luciferase reporter containing CYP3A4 promoter, CYP3A-Luc, were generated at Bristol-Myers Squibb. White tissue culture (TC)-surface 384-well plates were purchased from Perkin Elmer (Boston, Mass.). Luciferase substrate (Steady-Glo) was purchased from Promega (Madison, Wis.). Control compounds rifampicin, mifepristone, and sulfinpyrazone were purchased from Sigma (St. Louis, Mo.).
Culture of HepG2 cells is performed in T175 flasks using DMEM containing 10% FBS. The transfection mixture contains 1 μg/mL of PXR-pcDNA3 plasmid DNA, 20 μg/ml of Cyp3A-Luc plasmid DNA, 90 μL/mL of Lipofectamine 2000, and serum-free medium. After incubating at room temperature for 20 minutes, the transfection mixture (1 ml per flask) is applied to the cells in fresh medium (20 mL per flask), and flasks incubated at 37° C. (5% CO2) overnight.
The flasks are then tapped vigorously to break up cell aggregates. After the addition of 8 mL of DMEM containing 5% charcoal/dextran-treated FBS, the entire mixture is transferred to conical tubes. Cells are then centrifuged at 1000 rpm for 5 minutes. Cell pellets are resuspended to a final count of ˜7×10^6 cells/mL in freezing media (DMEM containing 20% serum and 10% DMSO). The cell suspension is aliquoted into 15-mL polypropylene tubes, 5 mL per tube. Cells are slowly frozen by placing in a Styrofoam-insulated container at −80° C. overnight. Vials are transferred to an Ultracold (−140° C.) freezer after 24 hours for long-term storage.
Vials of cryopreserved cells are thawed rapidly in a warm water bath for five minutes. Cells are pooled and diluted to 50 mL in a 50-mL conical vial. The thawed cells are centrifuged at 1500 rpm for 5 minutes to collect the cells and the supernatant discarded. Cells are then resuspended in fresh Media II (DMEM containing 5% charcoal/dextran-treated FBS, 1% Penicillin/Streptomycin, 100 μM Non-essential Amino Acids, 1 mM Sodium Pyruvate, and 2 mM L-Glutamine), counted using the Guava Cell Counter, and diluted to 1.6×10^5 cells/ml in the same media.
Fifty microliters of cell mixture is added to wells in columns 1-23 of white tissue-culture treated 384-well plates containing 0.25 μL of test compound dissolved in 100% DMSO. Fifty microliters of Media II is added to wells in column 24. The plates are incubated at 37° C. (5% CO2) for 24 hours, then 5 μL of Alamar Blue reagent (Trek Diagnostics, Cat #00-100) is added to each well. Plates are then incubated an additional two hours at 37° C., 5% CO2 and then one hour at room temperature. […] After the fluorescence is measured, 25 μL of luciferase substrate (Steady-Glo, Promega) is added to each well. The plates are incubated for fifteen minutes at room temperature, after which the luminescence is read on a PheraStar (BMG Labtech) plate reader.
Rifampicin (10 μM), a well-known agonist of PXR, is included in each plate as an internal standard and positive control. The data is then expressed as percent control (% CTRL), where the control signal is the signal from the 10 μM rifampicin and the blank signal is that from the DMSO vehicle. % CTRL=((Compound signal−Blank signal)/(Control signal−Blank signal))*100
The EC50 is defined as the concentration corresponding to half of the maximal response derived from the fitted 20-point curve as determined using a four-parameter logistic regression model. Additionally, compounds may also be reported as EC20 or EC60.

Structure (SMILES): CC(C)[C@@H](NC(=O)C1CCCC1)C(=O)N1CC[C@](O)(c2ccc(Cl)cc2)C(C)(C)C1 [Example 460]
- Human Liver Microsomal Metabolism % remaining (Assay Conditions A) [1]: 47%
- Human Liver Microsomal Metabolism % remaining (Assay Conditions B) [2]: 16%
- clearance [3]: 10 mL/min/kg
- bioavailability [3]: 8%

Structure (SMILES): CC(C)[C@@H](NC(=O)c1cccc(C(=O)O)c1)C(=O)N1CC[C@](O)(c2ccc(Cl)cc2)C(C)(C)C1 [Example 463]
- clearance [3]: 75 mL/min/kg
- bioavailability [3]: 9%

Structure (SMILES): CC(C)CC(=O)N[C@@H](C(=O)N1CC[C@](O)(c2ccc(Cl)cc2)C(C)(C)C1)C(C)C [Example 466]
- PXR EC60 [4]: 1.12 (EC60) μM
- Human Liver Microsomal Metabolism % remaining (Assay Conditions A) [1]: 67%
- Human Liver Microsomal Metabolism % remaining (Assay Conditions B) [2]: 33%

Structure (SMILES): CC(C)NC(=O)N[C@@H](C(=O)N1CC[C@](O)(c2ccc(Cl)cc2)C(C)(C)C1)C(C)C [Example 850]
- PXR EC60 [4]: 10.2 (EC60) μM
- Human Liver Microsomal Metabolism % remaining (Assay Conditions A) [1]: 99% (A)

Structure (SMILES): CC[C@@H](C)NC(=O)N[C@@H](C(=O)N1CC[C@](O)(c2ccc(Cl)cc2)C(C)(C)C1)C(C)C [Example 897]
- PXR EC60 [4]: >50 (EC60) μM
- Human Liver Microsomal Metabolism % remaining (Assay Conditions A) [1]: 59% (A)

Structure (SMILES): CC(C)[C@@H](NC(=O)CC(C)(C)O)C(=O)N1CC[C@](O)(c2ccc(Cl)cc2)C(C)(C)C1 [Example 1356]
- Human Liver Microsomal Metabolism % remaining (Assay Conditions A) [1]: 100% (A)/100% (B)
- Human Liver Microsomal Metabolism % remaining (Assay Conditions B) [2]: 100% (A)/100% (B)
